Laboratory results as given in US7417025B2, “Use of poly-α2,8-sialic acid mimetic peptides to modulate NCAM functions” (Centre National de la Recherche Scientifique, priority 2002, dated 2008).

What was measured:
[1] = tested on: mAb 735; test: Competitive ELISA of biotinylated peptide-BSA conjugates on anti-PSA mAb; format: binding; settings: for Binding of peptide to mAb 735 in competitive ELISA (percentage of binding): biotinylated peptide-BSA conjugate
Description: • mAb 735 and 30H12 • MaxiSorp™ plates (NUNC) for coating the antibody: ELISA plates • microtiter plates (NUNC) for peptide dilution: dilution plates • Biotinylated peptide-BSA conjugates prepared as above described • Extravidin alkaline phosphatase-avidin conjugate (SIGMA E2636) • p-nitrophenyl-phosphatase alkaline substrate (SIGMA 104-105) 2.1.2) Buffers • PBS pH 7.4 • Blocking solution: 0.5% BSA in PBS • TBS • TBST: TBS containing 0.05% Tween 20 • Extravidin alkaline phosphatase-avidin conjugate solution: 1/5000 in TBST • Alkaline phosphatase substrate solution; 1 tablet in 5 ml 50 mM NaHCO3, 1 mM MgCl2 solution, […]) Method
Maxisorp™ plate wells were coated with 100 μl mAb solution (25 μg/ml) for 2 h at room temperature. The control wells of the ELISA plates were only coated with the blocking solution. In parallel, the peptide-BSA conjugate dilution plates were blocked with 200 μl blocking solution for 2 h. The antibody coated wells and the control wells were blocked with 200 μl blocking solution for 1 h. In parallel the peptide-BSA conjugate dilution plates were washed 6 times with TBST and 120 μl TBST was added to the wells. An appropriate volume of peptide-BSA conjugate solution was added to the first well and the volume adjusted to 140 μl with TBST. The peptide-BSA conjugate in well one was diluted in the ratio 1/7 by taking 20 μl out of the first well and transferring into the second also to achieve the total volume of 140 μl. This was repeated for the remaining wells. The peptide-BSA conjugate dilutions for the control wells were done the same way. The blocked ELISA plates were washed 6 times with TBST and the peptide-BSA conjugate dilutions or 100 μl of the mixed competitor solution was added to the wells. After incubation for 1 h, the wells were washed 10 times with TBST and 100 μl of the alkaline phosphatase substrate solution was added to the wells. The plates were read out after 10 to 60 min using a microplate reader at 405 nm.
The specificity of peptide p21 (SEQ ID NO: 1) was investigated in a competition ELISA using biotinylated p21-BSA conjugate and a randomized variant of p21 (p22) conjugate as a control. The results presented in Tables X and XI are expressed as percentage of binding by comparison with peptide p21 at the highest concentration (9.45 10^-5 M) which corresponds to 100% binding.

[2] = tested on: GFP positive SVZ cells migrating to the olfactory bulb; test: Transplantation of GFP SVZ explants: cell migration in vivo; design: species or system mouse
Description: 100 μm diameter explants of 1-day-old GFP mice SVZ were incubated fifteen minutes in DMEM supplemented with 10% fetal bovine serum in presence of 0.01 M of p65 or reverse peptide and stereotaxically grafted (0.5 μl) into six weeks old mice SVZ as described in Lois and Alvarez-Buylla (Science, 1994, 264, 1145-1 148). Three or four days after the graft, animals were perfused intracardiacally with a 4% paraformaldehyde solution in PBS. Brains were dissected out, postfixed, cryoprotected, and freezed in isopentane. Sagittal serial sections (12 μm) were cut with a Leica microtome and immunostained as described above. GFP cells arriving in the olfactory bulb after three days were observed using UV fluorescence with a 40× objective (Axioscope, ZEISS) and counted on two different experiments (four animals per condition). The significance of the difference between the two conditions was calvalated by Student's t test.
The effect of PSA mimetic peptides on cell migration in vivo was analysed by grafting tissue and evaluating migration of SVZ cells. Small pieces of SVZ tissue (100 μm diameter) from 1-day-old GFP mice were grafted in the SVZ area of adult mice, in the presence of p65, p65 reverse peptide or in the absence of peptide. The results are illustrated in FIG. 8.

[3] = tested on: spinal cord dorsal hemisection; test: Functional recovery from spinal cord injury (BBB test, rotarod test); format: in vivo, mouse
Description: Male Swiss-CD1 mice (8-10 week-old) were anesthetized with a mixture of ketamine and xylazine. The spinal cord had been exposed by making a midline incision of the skin, and by retracting the paravertebral muscles. A laminectomy was performed at the T7-T8 level and the spinal cord exposed. Using iridectomy scissors, a bilateral dorsal hemisection, transecting left and right dorsal finiculus, the dorsal horns, but sparing most parts of the ventral fimiculus, was performed, resulting in a complete transection of the dorsomedial main Cortico Spinal Tract (CST). For the series of mice receiving the peptides a Surgicoll pledget saturated with 10 μl of either p65 or reverse p65 (10 μM) peptides was applied over the transection site and covered with petroleum jelly to prevent diffusion. All inside muscle layer were sutured using fine thread. Skin was sutured using surgical staples. […]
Functional evaluation of the animals was performed at day (D) D1, D4, D7, D14, D21, D28, D35, during the first week following the spinal cord lesion and then on a weekly basis until D35, by two different observers blinded to group identity. Locomotor recovery was evaluated using the BBB test (Basso, Beattie and Bresnahan test; Basso et al., Restor. Neurol. Neurosci, 2002, 5, 189-218). […]

[4] = peptide-BSA conjugate, in words

## DSPLVPFIDFHP [p21]
[1]; peptide 1.62 10^−9 M, + chondroitin sulfate C
  Binding of peptide to mAb 735 in competitive ELISA (percentage of binding): 50 ± 1%
[1]; peptide 1.62 10^−9 M, + colominic acid 1 mM
  Binding of peptide to mAb 735 in competitive ELISA (percentage of binding): 0 ± 1%
[1]; peptide 1.62 10^−9 M, no competitor
  Binding of peptide to mAb 735 in competitive ELISA (percentage of binding): 56 ± 4%
[1]; peptide 1.67 10^−5 M, + chondroitin sulfate C
  Binding of peptide to mAb 735 in competitive ELISA (percentage of binding): 99 ± 4%
[1]; peptide 1.67 10^−5 M, + colominic acid 1 mM
  Binding of peptide to mAb 735 in competitive ELISA (percentage of binding): 34 ± 3%
[1]; peptide 1.67 10^−5 M, no competitor
  Binding of peptide to mAb 735 in competitive ELISA (percentage of binding): 93 ± 10%
[1]; peptide 2.86 10^−9 M, + chondroitin sulfate C
  Binding of peptide to mAb 735 in competitive ELISA (percentage of binding): 11 ± 2%
[1]; peptide 2.86 10^−9 M, + colominic acid 1 mM
  Binding of peptide to mAb 735 in competitive ELISA (percentage of binding): 0 ± 0%
[1]; peptide 2.86 10^−9 M, no competitor
  Binding of peptide to mAb 735 in competitive ELISA (percentage of binding): 13 ± 1%
[1]; peptide 2.94 10^−6 M, + chondroitin sulfate C
  Binding of peptide to mAb 735 in competitive ELISA (percentage of binding): 99 ± 8%
[1]; peptide 2.94 10^−6 M, + colominic acid 1 mM
  Binding of peptide to mAb 735 in competitive ELISA (percentage of binding): 23 ± 1%
[1]; peptide 2.94 10^−6 M, no competitor
  Binding of peptide to mAb 735 in competitive ELISA (percentage of binding): 95 ± 1%
[1]; peptide 5.04 10^−10 M, + chondroitin sulfate C
  Binding of peptide to mAb 735 in competitive ELISA (percentage of binding): 3 ± 0%
[1]; peptide 5.04 10^−10 M, + colominic acid 1 mM
  Binding of peptide to mAb 735 in competitive ELISA (percentage of binding): 0 ± 0%
[1]; peptide 5.04 10^−10 M, no competitor
  Binding of peptide to mAb 735 in competitive ELISA (percentage of binding): 2 ± 0%
[1]; peptide 5.20 10^−7 M, + chondroitin sulfate C
  Binding of peptide to mAb 735 in competitive ELISA (percentage of binding): 94 ± 7%
[1]; peptide 5.20 10^−7 M, + colominic acid 1 mM
  Binding of peptide to mAb 735 in competitive ELISA (percentage of binding): 15 ± 3%
[1]; peptide 5.20 10^−7 M, no competitor
  Binding of peptide to mAb 735 in competitive ELISA (percentage of binding): 91 ± 2%
[1]; peptide 8.89 10^−11 M, + chondroitin sulfate C
  Binding of peptide to mAb 735 in competitive ELISA (percentage of binding): 2 ± 0%
[1]; peptide 8.89 10^−11 M, + colominic acid 1 mM
  Binding of peptide to mAb 735 in competitive ELISA (percentage of binding): 0 ± 0%
[1]; peptide 8.89 10^−11 M, no competitor
  Binding of peptide to mAb 735 in competitive ELISA (percentage of binding): 0 ± 0%
[1]; peptide 9.27 10^−8 M, + chondroitin sulfate C
  Binding of peptide to mAb 735 in competitive ELISA (percentage of binding): 92 ± 2%
[1]; peptide 9.27 10^−8 M, + colominic acid 1 mM
  Binding of peptide to mAb 735 in competitive ELISA (percentage of binding): 5 ± 2%
[1]; peptide 9.27 10^−8 M, no competitor
  Binding of peptide to mAb 735 in competitive ELISA (percentage of binding): 93 ± 9%
[1]; peptide 9.45 10^−5 M, + chondroitin sulfate C
  Binding of peptide to mAb 735 in competitive ELISA (percentage of binding): 96 ± 8%
[1]; peptide 9.45 10^−5 M, + colominic acid 1 mM
  Binding of peptide to mAb 735 in competitive ELISA (percentage of binding): 43 ± 3%
[1]; peptide 9.45 10^−5 M, no competitor
  Binding of peptide to mAb 735 in competitive ELISA (percentage of binding): 100 ± 11%
[1]; [4]
  Binding of peptide to mAb 735: binds specifically to mAb 735 in a concentration-dependent manner
  Effect of chondroitin sulfate C on peptide binding to mAb 735: no influence
  Effect of colominic acid on peptide binding to mAb 735: clear inhibition

## CSSVTAWTTGCG [p65]
[2]; 3 days after the graft
  Increase of the number of GFP positive cells present in the olfactory bulb by comparison with the control: 17 times
[2]; by comparison with the control, from 3 days post-engraftment
  Number of GFP positive cells migrating to the olfactory bulb: increases significantly
[3]; D35
  Rotarod test (fine motor coordination): beneficial effect on recovery
[3]; versus p65-reverse controls, starting from D14 post-injury, 10 μl of 10 μM peptide at lesion
  BBB score (locomotor recovery): significantly higher
